Here are results for ten molecules from PMC4764201, “High Throughput Screen for Escherichia coli Twin Arginine Translocation (Tat) Inhibitors” (PLoS ONE, 2016).

For one assay, the system named is Escherichia coli Tat pathway. Put plainly: Live cell assay: total mCherry fluorescence of cells producing spTorA-mCherry-SsrA (primary HTS assay). It is filed as cell-based. To be noted: Escherichia coli, read-out: IC50 (Live Cell Assay). The text has this: Having obtained the calibration and validation data described in the previous sections, we next established the protocol for the HTS. Details are provided in the Materials and Methods section. Here, we briefly summarize the assay. A single colony of E. coli strain MC4100(DE3) containing plasmids encoding TatABC and spTorA-mCherry-SsrA was inoculated into LB and grown overnight. The next morning, cells were transferred to fresh media, the production of TatABC and spTorA-mCherry-SsrA was induced, and cultures were aliquoted onto plates with test compounds. NaSCN was included in control wells to simulate a hit. Cells were grown for 8 h, followed by incubation at 4°C overnight, and then read the next day. Setting the total cellular fluorescence obtained with spTorA-mCherry-H6 under Tat^++ conditions to 100%, spTorA-mCherry-SsrA yielded a total cellular fluorescence signal of 63±14%, consistent with SsrA-induced degradation of the mCherry protein. The total cellular fluorescence was further reduced to 36±14% in the presence of 30 mM NaSCN (simulated hit), and to 41±6% in the absence of TatABC, verifying the Δψ- and Tat-dependence of the fluorescence signal (Fig 4D).
A single colony of E. coli strain MC4100(DE3) (pTatABC-DUET1, pTorA-mCherry-SsrA) was inoculated into a 100 mL LB culture supplemented with Ap and Cm and grown at 37°C with shaking (250 rpm) overnight. Cells were harvested by centrifugation at 4,000g for 10 min at room temperature (RT), suspended in 10 mL fresh LB broth supplemented with Ap and Cm, and the optical density (A500) was determined. Simultaneously, 700 mL LB supplemented with 100 mM arabinose, 2 mM IPTG, 100 μg/mL Ap and 68 μg/mL Cm was filter-sterilized (0.22 μm), and then divided into 200 mL (A) and 500 mL (B) portions. Sterile NaSCN (30 mM final; 1.5 mL of 4 M NaSCN) was added to portion A, and an equal ratio of sterile water was added to portion B (3.75 mL). Media and cells were transferred to the HTS facility on ice.
A CyBi-Well vario pipetting workstation (CyBio, Jena, Germany) was used to dispense library compounds and cultures. Library compounds (1 μL) solubilized in DMSO were added to 384-well black, clear-bottomed plates (Greiner Bio-one, Germany) in columns 3 to 22 (320 wells/plate). For controls, DMSO (1 μL) was added to each well in columns 1, 2, […], to achieve DMSO uniformity across the plate. Both portions of LB media were inoculated with E. coli MC4100(DE3) (pTatABC-DUET1, pTorA-mCherry-SsrA) from the concentrated stock to a final A500 = 0.15. The media with 30 mM NaSCN (positive control, or simulated hit) was dispensed into each well of columns 1 and 24 (49 μL each). An equivalent volume of media without NaSCN was dispensed into each well of columns 2 to 23. Columns 2 and 23 lacked NaSCN and test compounds and served as negative controls. The first 12,800 compounds were screened at 5 μM (plates 1–40), and the remaining 38,800 compounds were screened at 20 μM (plates 41–162).
The plates containing cells and dispersed test compounds were grown with shaking (200 rpm) at 25°C for 8 h. Plates were individually mounted, not stacked, on a hollow plastic platform, allowing adequate air circulation. Following the 8 h incubation, plates were transferred to 4°C for 16 h. Each plate was covered with an empty plate to prevent condensation on the lid. […] Following the incubation, plates were read using a BMG Polarstar Omega plate reader (BMG Labtech, Ortenberg, Germany) to determine optical densities (A500) and mCherry fluorescence intensities (EX = 584 nm, EM = 620 nm).
Supplementary file pone.0149659.s003.tiff: S3 Fig IC50's for Hit Compound 181^JS. (A) The total cellular mCherry fluorescence (live cell assay; n = 1), (B) the in vitro NADH-dependent Tat transport efficiency of pre-SufI (n = 1), and (C) the maximum transmembrane electrical potential gradient (n = 1) were measured for a range of concentrations of compound 181^JS (S2E Fig). (D) SDS-PAGE gel showing in-gel fluorescence data used in (B). […]
Take `O=[N+]([O-])c1ccc(O)c(-c2cccs2)c1` [Compound 202, 4-nitro-2-thiophen-2-ylphenol]: the IC50 came to 5 µM.

`N#CC(C#N)=NNc1ccccc1Br` [Compound 1, [(2-bromophenyl)hydrazono]malononitrile]: the IC50 came out at 6 µM.

As to `Oc1cc(Cl)ccc1Oc1ccc(Cl)cc1Cl` [Compound 18^NIH, 5-Chloro-2-(2,4-dichlorophenoxy)phenol], the IC50 amounted to 2 µM.

Consider `O=[N+]([O-])c1cc([N+](=O)[O-])c2ccccc2c1Cl` [Compound 51, 1-chloro-2,4-dinitronaphthalene], for which the IC50 worked out at 20 µM.

With `FC(F)(F)c1cccc(-c2cccc3cnccc23)c1` [Compound 140, 5-[3-(trifluoromethyl)phenyl]isoquinoline], the IC50 came out at 14 µM.

For `O=C(Nc1cccc(C(F)(F)F)c1)Nc1ncc([N+](=O)[O-])s1` [Compound 181^JS, 1-(5-nitro-1,3-thiazol-2-yl)-3-[3-(trifluoromethyl)phenyl]urea], the IC50 was 20 µM.

Staying with this assay, now noted: Tat++ conditions; appears to be a consequence of growth inhibition.
Take `Cc1ccc(S(=O)(=O)/C=C/C#N)cc1` [Bay 11–7082]: the “effect on synthesis of spTorA-mCherry-SsrA” value is on record as “inhibited synthesis”.

On to `O=C1C=CC(=O)N1c1ccccc1` [N-phenylmaleimide], for which the “effect on synthesis of spTorA-mCherry-SsrA” value is “inhibited synthesis”.

The assay is the same for the next values; noted with them: mCherry fluorescence intensity during in vivo cell growth, Tat++ conditions, 384-well plate; read-out: IC50 (Live Cell Assay).
In the case of `Fc1nc(F)c(F)c(NNC(=S)Nc2cccc(C(F)(F)F)c2)c1F` [Compound 111, 1-[(2,3,5,6-tetrafluoropyridin-4-yl)amino]-3-[(3-trifluoromethyl)phenyl]thiourea], the IC50 was found to be 31 µM.

For the molecule `N#CC1c2ccccc2-n2nncc2CN1Cc1cc(Cl)cc(Cl)c1` (stereo not shown) [21^NIH, 5-[(3,5-dichlorophenyl)methyl]-4,6-dihydrotriazolo[1,5-a][1, 4]benzodiazepine-6-carbonitrile], the IC50 was 13 µM.
